The results in this text go back to patent publication US8754116B2, “Macrocyclic inhibitors of hepatitis C virus” (Janssen R&D Ireland, priority 2005, dated 2014).

One may read the Ki as a dissociation constant, usually derived from enzyme kinetics or from competition with a known ligand. Low readings indicate tighter binding, high ones weaker binding. What is called EC50 is the concentration at which the effect is half-maximal.

Where only a bound is given, the exact number is not on record here.

For one experiment, the target named is HCV NS3/4A protease (Hepatitis C virus genotype 1a, UniProt P27958). In words: Inhibition assay (enzymatic assay, depsipeptide substrate hydrolysis). Also: full-length NS3 protease 1 nM, 25 µM NS4A cofactor, 0.5 µM substrate. The class given is biochemical. On the procedure:
[Landro, 1997 # Biochem 36 9340-9348]. […] The solutions were stored at −20° C. between measurements.
[Liu, 1999 Analytical Biochemistry 267 331-335].

In experiment [1] the test system is HCV replicons (NS3-NS5B regions of HCV type 1b) in Huh-7 luc/neo (Huh-Luc) cells. The experiment is described as follows: Replicon assay (HCV RNA replication, luciferase read-out). The class given is cell-based. As to conditions: Hepatitis C virus, Huh-7, 72 h, incubation of three days, luciferase activity. On the procedure:
The in vitro antiviral activity against HCV of the compounds of formula (I) was tested in a cellular HCV replicon system based on Lohmann et al. (1999) Science 285:110-113, with the further modifications described by Krieger et al. (2001) Journal of Virology 75: 4614-4624, which is further exemplified in the examples section. This model, while not a complete infection model for HCV, is widely accepted as the most robust and efficient model of autonomous HCV RNA replication currently available. […] It will be appreciated that it is important to distinguish between compounds that specifically interfere with HCV functions from those that exert cytotoxic or cytostatic effects in the HCV replicon model, and as a consequence cause a decrease in HCV RNA or linked reporter enzyme concentration. […]
The replicon cells were plated in 384 well plates in the presence of the test and control compounds which were added in various concentrations. Following an incubation of three days, HCV replication was measured by assaying luciferase activity (using standard luciferase assay substrates and reagents and a Perkin Elmer ViewLux™ ultraHTS microplate imager). […] The inhibitory activity of the compound on luciferase activity was monitored on the Huh-Luc cells, enabling a dose-response curve for each test compound.
(In general: Replicon systems follow genome replication, usually without infectious particles.)

Sequence of HCV NS3/4A protease (P27958 1027-1657): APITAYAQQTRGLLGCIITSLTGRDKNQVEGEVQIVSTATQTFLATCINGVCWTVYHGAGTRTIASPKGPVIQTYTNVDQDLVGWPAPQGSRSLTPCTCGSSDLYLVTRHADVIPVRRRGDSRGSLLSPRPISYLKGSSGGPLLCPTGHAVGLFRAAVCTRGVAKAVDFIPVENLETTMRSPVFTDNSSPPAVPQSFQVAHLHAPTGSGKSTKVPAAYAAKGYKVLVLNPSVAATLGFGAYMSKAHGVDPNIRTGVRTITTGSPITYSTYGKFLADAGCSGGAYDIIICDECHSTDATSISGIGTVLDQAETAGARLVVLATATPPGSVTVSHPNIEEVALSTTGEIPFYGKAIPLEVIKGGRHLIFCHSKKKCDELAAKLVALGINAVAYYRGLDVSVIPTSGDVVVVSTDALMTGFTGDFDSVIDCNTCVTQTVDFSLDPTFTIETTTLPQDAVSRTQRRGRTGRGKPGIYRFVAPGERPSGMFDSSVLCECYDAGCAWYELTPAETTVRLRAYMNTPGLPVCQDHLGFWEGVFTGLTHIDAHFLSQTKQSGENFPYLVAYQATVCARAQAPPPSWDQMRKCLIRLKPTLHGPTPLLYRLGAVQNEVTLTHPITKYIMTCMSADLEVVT

For the compound `CN1CCCC/C=C\[C@@H]2C[C@@]2(C(=O)NS(=O)(=O)C2CC2)NC(=O)[C@@H]2C[C@@H](n3nnc(-c4ccccc4)n3)C[C@H]2C1=O` [Compound 10, N-[17-(5-phenyltetrazol-2-yl)-13-methyl-2,14-dioxo-3,13-diazatricyclo[13.3.0.0^4,6]octadec-7-ene-4-carbonyl](cyclopropyl)sulfonamide], on HCV NS3/4A protease, the Ki amounted to 30 nM. In addition, the EC50 in experiment [1] was 3.43 µM.
With `CN1CCCC/C=C\[C@@H]2C[C@@]2(C(=O)O)NC(=O)[C@@H]2C[C@@H](n3nnc(-c4ccccc4)n3)C[C@H]2C1=O` [Compound 9, 17-(5-phenyltetrazol-2-yl)-13-methyl-2,14-dioxo-3,13-diazatricyclo[13.3.0.0^4,6]octadec-7-ene-4-carboxylic acid], the Ki at HCV NS3/4A protease is > 1000 nM. The EC50 in experiment [1] is > 10 µM.
